Here are results for four compounds from publication PMC4658304 (Nuclear medicine and biology, 2015).

By IC50 is commonly meant the point on the concentration scale where inhibition reaches its midpoint.

The nature of data set [1]: Stability in sodium phosphate buffer. The format is physicochemical. Conditions: sodium phosphate buffer 0.15 M pH 7.4, 57 min, room temperature, n = 4.
Data set [2] can be described thus: Stability of formulated radioligand in saline containing ethanol. The format is physicochemical. To be noted: saline containing ethanol (10% v/v), 1 h, room temperature, HPLC.
Data set [3] in a line: Plasma free fraction. The data set is classed as in vitro ADME. To be noted: rhesus monkey plasma, pre-blocked condition (JNJ16259685 3 mg/kg i.v.), n = 3.
Data set [4] can be described thus: Stability in monkey whole blood and plasma. The format is in vitro ADME. Conditions: 30 min, room temperature.
Data set [5] in a line: Emergence of radiometabolites in monkey plasma. The data set is classed as in vivo, rhesus monkey.
Data set [6] has as its target T1, mGluR1 (Macaca mulatta, UniProt I2CU04). To be noted: baseline.
For data set [7] the following is noted: monkey brain homogenates, 30 min, room temperature.
The conditions of data set [8]: cited from earlier work.
The target in data set [9] is T1, mGluR1. Description: Two-tissue compartmental modeling of PET data.
In data set [10] the target is T1, mGluR1. To be noted: cited from earlier work; for peak uptake in mGluR1-rich cerebellum: rhesus monkey.
For data set [11], the system named is mGluR1. Conditions: read-out: IC50 (mGluR1 affinity); mGluR1 radioligand affinity; cited from earlier work.

“And” between values parts separate entries of the source, which are not always exact repeats. Equal entries are not always repeated. Where two headings read alike, the source gives them in different places. Where only a bound is given, the exact number is not on record here.

T1 sequence (I2CU04 19-1195): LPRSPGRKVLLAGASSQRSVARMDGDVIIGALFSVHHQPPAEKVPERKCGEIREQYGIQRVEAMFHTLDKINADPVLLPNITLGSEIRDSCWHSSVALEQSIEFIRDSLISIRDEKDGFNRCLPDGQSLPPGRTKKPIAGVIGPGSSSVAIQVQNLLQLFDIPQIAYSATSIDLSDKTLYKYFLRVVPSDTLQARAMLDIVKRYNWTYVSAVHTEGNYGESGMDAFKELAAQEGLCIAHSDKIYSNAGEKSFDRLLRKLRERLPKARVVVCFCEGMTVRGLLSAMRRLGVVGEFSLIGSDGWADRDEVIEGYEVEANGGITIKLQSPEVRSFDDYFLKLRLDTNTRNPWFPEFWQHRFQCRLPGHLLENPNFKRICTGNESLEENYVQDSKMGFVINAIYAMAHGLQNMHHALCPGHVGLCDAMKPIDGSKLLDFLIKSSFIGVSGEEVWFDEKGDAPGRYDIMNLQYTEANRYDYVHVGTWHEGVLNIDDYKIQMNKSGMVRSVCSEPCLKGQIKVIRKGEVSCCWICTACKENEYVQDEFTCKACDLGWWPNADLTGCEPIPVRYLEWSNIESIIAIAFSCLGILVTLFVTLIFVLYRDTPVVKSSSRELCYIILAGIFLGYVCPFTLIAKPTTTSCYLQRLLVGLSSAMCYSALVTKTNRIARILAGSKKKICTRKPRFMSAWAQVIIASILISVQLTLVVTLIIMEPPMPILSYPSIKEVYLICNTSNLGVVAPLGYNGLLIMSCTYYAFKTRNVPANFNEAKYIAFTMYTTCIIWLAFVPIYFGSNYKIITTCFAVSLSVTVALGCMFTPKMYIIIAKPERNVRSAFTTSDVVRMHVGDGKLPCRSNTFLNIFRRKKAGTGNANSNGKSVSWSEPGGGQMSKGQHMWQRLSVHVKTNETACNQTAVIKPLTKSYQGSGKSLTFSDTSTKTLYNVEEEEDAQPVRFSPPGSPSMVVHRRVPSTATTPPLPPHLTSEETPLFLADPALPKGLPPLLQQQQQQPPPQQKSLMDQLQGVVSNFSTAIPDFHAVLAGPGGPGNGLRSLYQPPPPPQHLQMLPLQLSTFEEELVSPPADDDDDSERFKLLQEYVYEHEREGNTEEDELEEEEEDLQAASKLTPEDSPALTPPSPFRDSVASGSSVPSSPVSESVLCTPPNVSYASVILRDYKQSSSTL

Turning to `CNc1cc(-c2csc(N(C)C(=O)c3ccc(F)cc3)n2)ncn1` [[^11C]FIMX, [carbonyl-^11C]4-Fluoro-N-methyl-N-(4-(6-(methylamino)pyrimidin-4-yl)thiazol-2-yl)benzamide], the “remaining fraction of original radiochemical purity in buffer” value in data set [1] is recorded as 79.1 ± 3.3%. Besides, the “unchanged radioligand in formulation” value in data set [2] is listed as over 97%. For the same compound, the “plasma free fraction (fP)” value in [3] was 0.042 ± 0.003. For the same compound, the “unchanged radioligand in plasma” value in data set [4] (monkey plasma) is listed as 91%. Also, in data set [4] (monkey whole blood), the “unchanged radioligand in whole blood” value is listed as 92%. For the same compound, the “percentage of total plasma radioactivity represented by parent” value (“percentage” below) in [5] (baseline, 10 min after i.v. injection) is 31%. The “percentage” value in data set [5] (baseline, 30 min after i.v. injection) turned out to be 21%. The “percentage” value in data set [5] (preblocked condition, 10 min after i.v. injection) is 43%. Moreover, the “percentage” value in [5] (preblocked condition, 30 min after i.v. injection) came to 31%. In [6], the “peak radioactivity uptake in frontal cortex” value was found to be 4.23 SUV, the “peak radioactivity uptake in hippocampus” value is 4.47 SUV, the “peak radioactivity uptake in occipital cortex” value amounted to 3.67 SUV and the “peak radioactivity uptake in thalamus” value was 6.00 SUV. Besides, the “cerebellum radioactivity level at 85 min” value in data set [6] (85 min after injection) is given as 5.74 SUV. Moreover, the “decrease of cerebellum radioactivity from peak” value in data set [6] (at 85 min after injection) was 32%. Moreover, the “time of peak regional brain radioactivity uptake” value in [6] (i.v.) is reported as “around 12.5 min”. Also, in [6] (receptor-rich cerebellum), the “peak radioactivity uptake in cerebellum” value was 8.50 SUV and 8.5 SUV. In addition, the “unchanged radioligand in brain homogenates” value in [7] was found to be 99.4%. The “logD obtained without correction for instability” value in data set [8] is listed as 2.52. Besides, the “imaging time after which VT appeared stable in all brain regions” value in [9] (baseline) is 60 min. For the same compound, in data set [9] (baseline scans, two-tissue compartment model), the “imaging time by which VT is within 10% of terminal value” is recorded as at most 40 min. In data set [9] (baseline vs preblock with JNJ16259685), the “reduction of VT in cerebellum by preblock” value is listed as about 90%. The compound also displayed a VT in cerebellum in data set [9] (rhesus monkey cerebellum, baseline) of 13 mL/cm^3.

With `Cc1ccc(C(=O)N(C)c2nc(-c3cc(NC(C)C)ncn3)cs2)cc1` [[^11C]ITDM, [^11C]N-[4-[6-(isopropylamino)pyrimidin-4-yl]-1,3-thiazol-2-yl]-4-methyl-N-methylbenzamide], in [10], the “peak uptake in mGluR1-rich cerebellum” value is listed as under 1.3 SUV.

As to `COc1ccc(C(=O)N(C)c2nc(-c3cc(NC(C)C)ncn3)cs2)cc1` [[^11C]ITMM, [^11C]N-[4-[6-(isopropylamino)pyrimidin-4-yl]-1,3-thiazol-2-yl]-4-methoxy-N-methylbenzamide], the “peak uptake in mGluR1-rich cerebellum” value in data set [10] is under 1.3 SUV.

Regarding `CNc1cc(-c2csc(N(C)C(=O)c3ccc([18F])cc3)n2)ncn1` [[^18F]FIMX, [^18F]4-fluoro-N-methyl-N-(4-(6-(methylamino)pyrimidin-4-yl)thiazol-2-yl)benzamide], the IC50 in [11] was 1.8 nM. For the same compound, the “decrease of cerebellum radioactivity from peak” value in [10] (at 90 min after injection) is on record as 37%.
